Results from US8546608B2, “Proteasome inhibitors and methods of using the same” (Cephalon, Inc., priority 2003, dated 2013).
Structures can show the parent of a compound that is named as a salt. Where two headings read alike, the source gives them in different places.

Legend:
[1] = molecular target: T1, 20S Human Erythrocyte Proteasome (HEP) (Homo sapiens, UniProt P20618+P28074); assay: Chymotrypsin-like activity of 20S Human Erythrocyte Proteasome (HEP), IC50 determination; type: biochemical; settings: assay of Example C, inhibition of HEP
T1 construct: 20S Human Erythrocyte Proteasome (HEP), purchased from Immatics Biotechnologies Inc; purchased Immatics Biotechnologies Inc., Tübingen, Germany; host or cells: human erythrocytes (natural source)
Summary of the method: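 20S proteasome at 0.2 μg/mL (about 0.6 nM catalytic sites) in 20 mM Tris with 0.04% SDS, preincubated 15 min at 37° C with inhibitor before Suc-LLVY-AMC (100 μM final). AMC fluorescence read in the linear range; triplicates, IC50 from concentration series.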

[2] = molecular target: T2, proteasome in Molt-4 cells (human leukemia) (Homo sapiens, UniProt P20618+P28074); type: cell-based
T2 sequence (P28074 60-263): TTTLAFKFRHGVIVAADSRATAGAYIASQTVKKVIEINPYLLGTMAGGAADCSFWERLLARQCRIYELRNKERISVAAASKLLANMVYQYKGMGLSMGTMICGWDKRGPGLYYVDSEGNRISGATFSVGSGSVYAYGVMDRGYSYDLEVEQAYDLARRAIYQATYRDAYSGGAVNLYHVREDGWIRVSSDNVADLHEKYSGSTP
T2 sequence (P20618 29-241): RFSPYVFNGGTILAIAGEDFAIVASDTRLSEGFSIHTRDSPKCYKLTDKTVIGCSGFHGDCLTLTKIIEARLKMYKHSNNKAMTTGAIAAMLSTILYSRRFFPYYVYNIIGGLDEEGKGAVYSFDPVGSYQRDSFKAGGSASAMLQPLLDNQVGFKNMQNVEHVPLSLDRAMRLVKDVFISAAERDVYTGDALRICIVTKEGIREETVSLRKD
Summary of the method: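 Intact Molt-4 cells (6×10^6 cells/mL) in HEPES-buffered saline were preincubated with inhibitor 15 min at 37 °C, then given cell-permeable MeOSuc-FLF-AFC at 25 μM final.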

[3] = assay of Example E, inhibition of MOLT4; read-out: MOLT4 (EC50)

Row | SMILES | IC50 [1] | EC50 [2, 3] | EC50 ([2]; read-out: MOLT4 (EC50); assay of Example E, inhibition of MOLT4)
1 | CC(C)C[C@H](NC(=O)[C@H](CCCNC(=N)N[N+](=O)[O-])NC(=O)C1CC2CCC1C2)B(O)O (stereo partly drawn) [E.2.25, Boronic acid, [(1R)-1-[[(2S)-5-[[imino(nitroamino)methyl]amino]-2-[(bicyclo[2.2.1]heptane-2-carbonyl)amino]-1-oxopentyl]amino]-3-methylbutyl]] | < 10 nM | 2000 to 10000 nM | 
2 | CCCCCCCCCC(=O)N[C@@H](CNC(=O)CCCCC)C(=O)N[C@@H](CC(C)C)B(O)O [E.5.13, Boronic acid, [(1R)-1-[[(2S)-3-(hexanonylamino)-2-[(decanoylamino)]-1-oxopropyl]amino]-3-methylbutyl]] | < 10 nM | < 200 nM | 
3 | CCCCCCCC(=O)N[C@@H](CCCNC(=N)N[N+](=O)[O-])C(=O)N[C@@H](CC(C)C)B(O)O [E.2.2, Boronic acid, [(1R)-1-[[(2S)-5-[[imino(nitroamino)methyl]amino]-2-[(octanoyl)amino]-1-oxopentyl]amino]-3-methylbutyl]] | < 10 nM | 200 to 2000 nM | 
4 | CSCCC(=O)N[C@@H](CCCNC(=N)N[N+](=O)[O-])C(=O)N[C@@H](CC(C)C)B(O)O [E.2.50, Boronic acid, [(1R)-1-[[(2S)-5-[[imino(nitroamino)methyl]amino]-2-[(3-Methylsulfanylpropanoyl)amino]-1-oxopentyl]amino]-3-methylbutyl]] | < 10 nM | > 10000 nM | 
5 | CCCCCCCCCCCCC(=O)N[C@@H](CCCNC(=N)N[N+](=O)[O-])C(=O)N[C@@H](CC(C)C)B(O)O [E.2.45, Boronic acid, [(1R)-1-[[(2S)-5-[[imino(nitroamino)methyl]amino]-2-[(tridecanoyl)amino]-1-oxopentyl]amino]-3-methylbutyl]] | < 10 nM | < 200 nM | 
6 | CC(C)C[C@H](NC(=O)[C@H](CCCNC(=N)N[N+](=O)[O-])NC(=O)Cc1ccccc1Cl)B(O)O [E.1.13, Boronic acid, [(1R)-1-[[(2S)-5-[[imino(nitroamino)methyl]amino]-2-[2-(2-chlorophenyl)acetyl]amino]-3-methylbutyl] HCl salt] | < 10 nM |  | 2000 to 10000 nM
7 | CC(C)C[C@H](NC(=O)[C@H](CCCNC(=N)N[N+](=O)[O-])NC(=O)CCCCCCCCC#N)B(O)O [D.7.61, Boronic acid, [(1R)-1-[[(2S)-5-[[imino(nitroamino)methyl]amino]-2-[(9-cyanononanoyl)amino]-1-oxopentyl]amino]-3-methylbutyl]] | < 10 nM | > 10000 nM | 
8 | CC(C)C[C@H](NC(=O)[C@H](CCCNC(=N)N[N+](=O)[O-])NC(=O)c1ccoc1)B(O)O [E.2.28, Boronic acid, [(1R)-1-[[(2S)-5-[[imino(nitroamino)methyl]amino]-2-[(furan-3-carbonyl)amino]-1-oxopentyl]amino]-3-methylbutyl]] | < 10 nM | > 10000 nM | 
9 | CC(C)C[C@H](NC(=O)[C@H](CCCNC(=N)N[N+](=O)[O-])NC(=O)CCCCCCCCCO)B(O)O [E.2.67, Boronic acid, [(1R)-1-[[(2S)-5-[[imino(nitroamino)methyl]amino]-2-[(10-hydroxydecanoyl)amino]-1-oxopentyl]amino]-3-methylbutyl]] | < 10 nM | 2000 to 10000 nM | 
10 | CC(C)C[C@H](NC(=O)[C@H](CCCNC(=N)N[N+](=O)[O-])NC(=O)c1ccc2ccccc2n1)B(O)O [E.2.18, Boronic acid, [(1R)-1-[[(2S)-5-[[imino(nitroamino)methyl]amino]-2-[(quinoline-2-carbonyl)amino]-1-oxopentyl]amino]-3-methylbutyl]] | < 10 nM | 2000 to 10000 nM | 

Further lines, with some results ahead:

Row | IC50 [1] | EC50 [2, 3] | SMILES | EC50 ([2]; read-out: MOLT4 (EC50); assay of Example E, inhibition of MOLT4)
11 | < 10 nM | < 200 nM | CCCCCCCCCC(=O)N[C@@H](CC(N)=O)C(=O)N[C@@H](CC(C)C)B1O[C@@H]2C[C@@H]3C[C@@H](C3(C)C)[C@]2(C)O1 [D.8.19, Decanamide, N-[(1S)-1-[[[(1R)-1-[(3aS,4S,6S,7aR)-hexahydro-3a,5,5-trimethyl-4,6-methano-1,3,2-benzodioxaborol-2-yl]-3-methylbutyl]amino]carbonyl]-2-carbamoylethyl]] | 
12 | < 10 nM | 2000 to 10000 nM | CC(C)C[C@H](NC(=O)[C@H](CCCNC(=N)N[N+](=O)[O-])NC(=O)/C=C/c1ccccc1Br)B(O)O [E.2.52, Boronic acid, [(1R)-1-[[(2S)-5-[[imino(nitroamino)methyl]amino]-2-[[trans-3-(2-bromophenyl)acryl]amino]-1-oxopentyl]amino]-3-methylbutyl]] | 
13 | < 10 nM | < 200 nM | CC(C)C[C@H](NC(=O)[C@H](CCCNC(=N)N[N+](=O)[O-])NC(=O)CCCCCCCCCCCN1C(=O)c2ccccc2C1=O)B1O[C@@H]2C[C@@H]3C[C@@H](C3(C)C)[C@]2(C)O1 [D.3.189, 12-(1,3-Dioxo-1,3-dihydro-isoindol-2-yl)-dodecanamide, N-[(1S)-1-[[[(1R)-1-[(3aS,4S,6S,7aR)-hexahydro-3a,5,5-trimethyl-4,6-methano-1,3,2-benzodioxaborol-2-yl]-3-methylbutyl]amino]carbonyl]-4-[[imino(nitroamino)methyl]amino]butyl]] | 
14 | < 10 nM | < 200 nM | CCCCCCCCCCCCC(=O)N[C@@H](CCCNC(=N)N[N+](=O)[O-])C(=O)N[C@@H](CC(C)C)B1O[C@@H]2C[C@@H]3C[C@@H](C3(C)C)[C@]2(C)O1 [D.3.119, Tridecanamide,N-[(1S)-1-[[[(1R)-1-[(3aS,4S,6S,7aR)-hexahydro-3a,5,5-trimethyl-4,6-methano-1,3,2-benzodioxaborol-2-yl]-3-methylbutyl]amino]carbonyl]-4-[[imino(nitroamino)methyl]amino]butyl]] | 
15 | < 10 nM | < 200 nM | CCCCc1ccc(C(=O)N[C@H](C(=O)N[C@@H](CC(C)C)B2O[C@@H]3C[C@@H]4C[C@@H](C4(C)C)[C@]3(C)O2)[C@@H](C)O)cc1 [D.3.179, 4-butylbenzamide, N-[(1S,2R)-1-[[[(1R)-1-[(3aS,4S,6S,7aR)-hexahydro-3a,5,5-trimethyl-4,6-methano-1,3,2-benzodioxaborol-2-yl]-3-methylbutyl]amino]-carbonyl]-2-hydroxypropyl]-] | 
16 | < 10 nM | 200 to 2000 nM | CCCCCCCCCCCCCC(=O)N[C@@H](CCCNC(=N)N[N+](=O)[O-])C(=O)N[C@@H](CC(C)C)B1O[C@@H]2C[C@@H]3C[C@@H](C3(C)C)[C@]2(C)O1 [D.3.102, Tetradecanamide,N-[(1S)-1-[[[(1R)-1-[(3aS,4S,6S,7aR)-hexahydro-3a,5,5-trimethyl-4,6-methano-1,3,2-benzodioxaborol-2-yl]-3-methylbutyl]amino]carbonyl]-4-[[imino(nitroamino)methyl]amino]butyl]] | 
17 | < 10 nM | < 200 nM | CC(C)C[C@H](NC(=O)[C@H](CCCNC(=N)N[N+](=O)[O-])NC(=O)Cc1ccccc1Cl)B1O[C@@H]2C[C@@H]3C[C@@H](C3(C)C)[C@]2(C)O1 [D.3.29, 2-(2-Chlorophenyl)acetamide,N-[(1S)-1-[[[(1R)-1-[(3aS,4S,6S,7aR)-hexahydro-3a,5,5-trimethyl-4,6-methano-1,3,2-benzodioxaborol-2-yl]-3-methylbutyl]amino]carbonyl]-4-[[imino(nitroamino)methyl]amino]butyl]] | 
18 | < 10 nM | 200 to 2000 nM | COC(=O)CCCCCCC(=O)N[C@@H](CCCNC(=N)N[N+](=O)[O-])C(=O)N[C@@H](CC(C)C)B1O[C@@H]2C[C@@H]3C[C@@H](C3(C)C)[C@]2(C)O1 [D.2.5] | 
19 | < 10 nM | > 10000 nM | CC(C)C[C@H](NC(=O)[C@H](CCCNC(=N)N[N+](=O)[O-])NC(=O)CSCc1ccccc1)B(O)O [E.2.49, Boronic acid, [(1R)-1-[[(2S)-5-[[imino(nitroamino)methyl]amino]-2-[[2-[(phenylmethyl)sulfanyl]acetyl]amino]-1-oxopentyl]amino]-3-methylbutyl]] | 
20 | < 10 nM | < 200 nM | CCCCc1ccc(C(=O)N[C@@H](CC(N)=O)C(=O)N[C@@H](CC(C)C)B2O[C@@H]3C[C@@H]4C[C@@H](C4(C)C)[C@]3(C)O2)cc1 [D.8.20, 4-Butylbenzamide, N-[(1S)-1-[[[(1R)-1-[(3aS,4S,6S,7aR)-hexahydro-3a,5,5-trimethyl-4,6-methano-1,3,2-benzodioxaborol-2-yl]-3-methylbutyl]amino]carbonyl]-2-carbamoylethyl]] | 
21 | < 100 nM | > 10000 nM | CCS(=O)(=O)NCCCCCC(=O)N[C@@H](CCCNC(=N)N[N+](=O)[O-])C(=O)N[C@@H](CC(C)C)B1O[C@@H]2C[C@@H]3C[C@@H](C3(C)C)[C@]2(C)O1 [D.1.14, 6-(Ethanesulfonylamino)hexanamide,N-[(1S)-1-[[[(1R)-1-[(3aS,4S,6S,7aR)-hexahydro-3a,5,5-trimethyl-4,6-methano-1,3,2-benzodioxaborol-2-yl]-3-methylbutyl]amino]carbonyl]-4-[[imino(nitroamino)methyl]amino]butyl]] | 
